# Results from patent US4390629A, “Polypeptide degrading enzymes” (President and Fellows of Harvard College, priority 1981, dated 1983).
# Where two headings read alike, the source gives them in different places.
# B1: Do: E. coli serine protease of about 520,000 daltons, degrades globin and casein (protein, UniProt P0C0V0 27-474, looked up)
# Periplasmic serine …: AETSSATTAQQMPSLAPMLEKVMPSVVSINVEGSTTVNTPRMPRNFQQFFGDDSPFCQEGSPFQSSPFCQGGQGGNGGGQQQKFMALGSGVIIDADKGYVVTNNHVVDNATVIKVQLSDGRKFDAKMVGKDPRSDIALIQIQNPKNLTAIKMADSDALRVGDYTVAIGNPFGLGETVTSGIVSALGRSGLNAENYENFIQTDAAINRGNSGGALVNLNGELIGINTAILAPDGGNIGIGFAIPSNMVKNLTSQMVEYGQVKRGELGIMGTELNSELAKAMKVDAQRGAFVSQVLPNSSAAKAGIKAGDVITSLNGKPISSFAALRAQVGTMPVGSKLTLGLLRDGKQVNVNLELQQSSQNQVDSSSIFNGIEGAEMSNKGKDQGVVVNNVKTGTPAAQIGLKKGDVIIGANQQAVKNIAELRKVLDSKPSVLALNIQRGDSTIYLLMQ
# B2: La: ATP-dependent cytoplasmic E. coli serine protease of peak IV, about 115,000 daltons (protein, UniProt P0A9M0 2-784, looked up)
# Lon protease: NPERSERIEIPVLPLRDVVVYPHMVIPLFVGREKSIRCLEAAMDHDKKIMLVAQKEASTDEPGVNDLFTVGTVASILQMLKLPDGTVKVLVEGLQRARISALSDNGEHFSAKAEYLESPTIDEREQEVLVRTAISQFEGYIKLNKKIPPEVLTSLNSIDDPARLADTIAAHMPLKLADKQSVLEMSDVNERLEYLMAMMESEIDLLQVEKRIRNRVKKQMEKSQREYYLNEQMKAIQKELGEMDDAPDENEALKRKIDAAKMPKEAKEKAEAELQKLKMMSPMSAEATVVRGYIDWMVQVPWNARSKVKKDLRQAQEILDTDHYGLERVKDRILEYLAVQSRVNKIKGPILCLVGPPGVGKTSLGQSIAKATGRKYVRMALGGVRDEAEIRGHRRTYIGSMPGKLIQKMAKVGVKNPLFLLDEIDKMSSDMRGDPASALLEVLDPEQNVAFSDHYLEVDYDLSDVMFVATSNSMNIPAPLLDRMEVIRLSGYTEDEKLNIAKRHLLPKQIERNALKKGELTVDDSAIIGIIRYYTREAGVRGLEREISKLCRKAVKQLLLDKSLKHIEINGDNLHDYLGVQRFDYGRADNENRVGQVTGLAWTEVGGDLLTIETACVPGKGKLTYTGSLGEVMQESIQAALTVVRARAEKLGINPDFYEKRDIHVHVPEGATPKDGPSAGIAMCTALVSCLTGNPVRADVAMTGEITLRGQVLPIGGLKEKLLAAHRGGIKTVLIPFENKRDLEEIPDNVIADLDIHPVKRIEEVLTLALQNEPSGMQVVTAK
# Experiments:
# Fa = assay type: biochemical, E. coli
# Mi = assay type: biochemical, E. coli
# Protease Re = target: T1, Protease Re (Escherichia coli, UniProt P23865); assay: Sensitivity of protease Re proteolytic activity (casein) to inhibitors; assay type: biochemical, E. coli
# T1 sequence (P23865 23-682): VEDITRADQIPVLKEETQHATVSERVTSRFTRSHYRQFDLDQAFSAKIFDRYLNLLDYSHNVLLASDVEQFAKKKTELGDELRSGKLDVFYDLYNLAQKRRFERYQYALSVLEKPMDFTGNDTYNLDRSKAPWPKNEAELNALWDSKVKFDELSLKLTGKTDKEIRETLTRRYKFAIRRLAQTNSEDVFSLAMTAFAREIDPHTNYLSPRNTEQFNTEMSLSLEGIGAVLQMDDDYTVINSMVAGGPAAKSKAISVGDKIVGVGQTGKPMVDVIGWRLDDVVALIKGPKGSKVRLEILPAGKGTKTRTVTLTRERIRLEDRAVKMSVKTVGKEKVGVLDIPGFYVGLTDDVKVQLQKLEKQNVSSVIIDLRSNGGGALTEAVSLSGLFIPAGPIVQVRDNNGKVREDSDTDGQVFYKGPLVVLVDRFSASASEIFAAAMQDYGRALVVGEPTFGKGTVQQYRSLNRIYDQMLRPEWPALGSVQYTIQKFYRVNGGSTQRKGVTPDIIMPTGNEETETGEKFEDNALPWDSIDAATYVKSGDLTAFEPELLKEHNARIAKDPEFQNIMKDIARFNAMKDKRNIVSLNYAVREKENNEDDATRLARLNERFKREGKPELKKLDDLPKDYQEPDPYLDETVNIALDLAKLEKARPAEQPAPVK
# Protease Ci = assay: Inhibition and stimulation of protease Ci insulin-degrading activity; assay type: biochemical, E. coli
# La [1] = target: T2, La (Escherichia coli, UniProt P0A9M0)
# Protease So = assay type: biochemical, E. coli
# La [2] = target: T2, La; assay: biochemical; conditions: read-out: stimulation of globin-degrading activity in peak IV
# [^3 H] casein = Degradation of [3H] casein to acid-soluble products; assay type: biochemical, bovine
# [^14 C] globin = Degradation of [14C] globin to acid-soluble products; assay type: biochemical, beef
molecule,measurement,setting,value
O=C(O)CN(CCN(CC(=O)O)CC(=O)O)CC(=O)O [EDTA],inhibition of Fa,Fa,60%
same,inhibition of Mi,Mi,about 35%
same,sensitivity of protease Re to inhibitor,Protease Re,sensitive
O=C(O)CN(CCOCCOCCN(CC(=O)O)CC(=O)O)CC(=O)O [EGTA],inhibition of protease Ci activity,Protease Ci,not
O=c1ccn([C@@H]2O[C@H](COP(=O)(O)OP(=O)(O)OP(=O)(O)O)[C@@H](O)[C@H]2O)c(=O)[nH]1 [UTP],stimulation of La proteolysis by nucleotides (in words),La [1],stimulate but less effectively
O=S(=O)(F)Cc1ccccc1 [phenylmethyl sulfonyl fluoride],sensitivity of protease Re to inhibitor,Protease Re,sensitive
same,sensitivity of La to inhibitor,La [1],sensitive
same,sensitivity of protease So to inhibitor,Protease So,sensitive
N=C(N)c1ccc(OCCCCCOc2ccc(C(=N)N)cc2)cc1 [pentamidine],inhibition of protease So,Protease So,about 80%
O=C(O)c1cc[c]([Hg+])cc1.[OH-] [p-hydroxymercuribenzoate],inhibition of protease Ci activity,Protease Ci,sensitive
[O]=[V]([O-])([O-])[O-] [Vanadate],sensitivity of La to inhibitor,La [1],sensitive to inhibition
CCN1C(=O)C=CC1=O [N-ethyl maleimide],sensitivity of La to inhibitor,La [1],inhibited
[Zn+2] [Zn^++],stimulation of protease Ci activity by divalent cations,Protease Ci,not
CCCCCCC1OC(=O)CNC(=O)C(C(C)O)NC(=O)C(CO)NC(=O)C(C(C)CC)NC(=O)C(CC(C)C)N(C)C(=O)C1C (centres unmarked) [globomycin],inhibition of protease Ci activity by antibiotics,Protease Ci; concentrations of 5-20 μg per ml,strongly inhibit
Nc1ncnc2c1ncn2[C@H]1C[C@H](O)[C@@H](COP(=O)(O)OP(=O)(O)OP(=O)(O)O)O1 [deoxyadenosine triphosphate],stimulation of La proteolysis by nucleotides (in words),La [1],stimulate but less effectively
Nc1ncnc2c1ncn2[C@@H]1O[C@H](COP(=O)(O)OP(=O)(O)OP(=O)(O)O)[C@@H](O)[C@H]1O [ATP],fold induction at 3000 µM,La [2],4 to 20
same,increase of degradation of globin and casein by La,La [1]; 3000 µM,2.5-20 fold
c1cnc2c(c1)ccc1cccnc12 [o-phenanthroline],inhibition of Fa,Fa,about 35%
same,inhibition of Mi,Mi,about 35%
same,inhibition of protease Ci activity,Protease Ci,inhibited
same,sensitivity of protease Re to inhibitor,Protease Re; casein as substrate,sensitive
[Mn+2] [Mn^++],stimulation of protease Ci activity by divalent cations,Protease Ci,markedly stimulated
Nc1ccn([C@@H]2O[C@H](COP(=O)(O)OP(=O)(O)OP(=O)(O)O)[C@@H](O)[C@H]2O)c(=O)n1 [CTP],stimulation of La proteolysis by nucleotides (in words),La [1],stimulate but less effectively
[Co+2] [Co^++],stimulation of protease Ci activity by divalent cations,Protease Ci,markedly stimulated
bacitracin,inhibition of protease Ci activity by antibiotics,Protease Ci,strongly inhibit
B1,degradation of casein,[^3 H] casein,hydrolyze
same,degradation of globin,[^14 C] globin,hydrolyze
B2,degradation of casein,[^3 H] casein,capable of degrading
same,degradation of globin,[^14 C] globin,capable of degrading
